# Laboratory results as given in paper PMC9695823, “Regioselective Synthesis of 6-O-Acetyl Dieckol and Its Selective Cytotoxicity against Non-Small-Cell Lung Cancer Cells” (Marine Drugs, 2022).
# What was measured:
# [1] = test system: A549 cells; test: MTT cytotoxicity assay against A549 non-small-cell lung cancer cells; assay type: cell-based; details: for IC50: Homo sapiens, A549
# Experimental: (§1) The cytotoxicity of DK and its various acyl and alkyl derivatives was assessed using the MTT assay against a non-small-lung cancer cell line (A549) and a normal cell line (NIH/3T3) at […] different concentrations (0, 0.005, 0.05, 0.5, 5, 50 and 500 μM). Among the newly synthesized acyl derivatives, the 6-O-acetyl (2) and 6-O-benzoyl (3) derivatives were included in this study, while the 6-O-propionyl (4) and 6-O-toluoyl (5) derivatives, which had been considered to be very similar to 6-O-acetyl (2) and 6-O-benzoyl (3) derivatives, respectively, were excluded from this study. […] The methyl and benzyl derivatives (6 and 7) were selected in parallel with acetyl and benzoyl (2 and 3) derivatives, respectively, to identify any impact of substitution chemistry (via sp^2 vs. sp^3 carbon in acylations and alkylations, respectively) and steric effect in cytotoxicity. Methoxymethyl (8), 3-(ethoxycarbonyl)propyl (9) and hydroxypropyl (10) derivatives were selected to determine the size effect of moderately polar substituents with a common heteroatom such as oxygen.
# (§2) The non-small-cell lung cancer cell line A549 and the normal cell line NIH/3T3 were purchased from Korea Cell Line Research Foundation (Seoul, Korea). The cell lines were cultured in Dulbecco’s modified Eagle’s medium (DMEM) supplemented with 10% FBS and 1% penicillin–streptomycin at 37 °C with 5% CO2.
# The cytotoxicity of DK and its derivatives was assessed by MTT assay, based on the reduction of MTT into insoluble formazan crystals by metabolically active cells. Briefly, the cells ([…]) were seeded in each well containing culture medium in a 96-well plate. After the incubation for 24 h at 37 °C, various concentrations of DK and its derivatives were added. After 24 h, 10 μL of the MTT reagent ([…]) was added, and the plates were incubated for an additional 2 h. The medium was discarded, and the formazan blue, which was formed in the cells, was dissolved in […] of dimethyl sulfoxide (DMSO). The optical density was measured at 540 nm using a microplate spectrophotometer (Epoch; Agilent Technologies, Inc. Santa Clara, CA, USA). The IC50 corresponded to a 50% decrease in the number of cells compared to the untreated control. The results are represented as the mean of three independent experiments. The IC50 values of DK and its derivatives were determined for the different cell lines by nonlinear regression using GraphPad Prism v6.0 software (La Jolla, CA, USA).
# [2] = test system: NIH/3T3 cells; test: MTT cytotoxicity assay against normal cell line NIH/3T3; assay type: cell-based; details: 24 h treatment, 0-500 μM, mean ± SD, listed as DK
# Experimental: as §1, §2
# (§3) The cytotoxicity of DK and its derivatives was assessed by MTT assay, based on the reduction of MTT into insoluble formazan crystals by metabolically active cells. Briefly, the cells ([…]) were seeded in each well containing culture medium in a 96-well plate. After the incubation for 24 h at 37 °C, various concentrations of DK and its derivatives were added. […] The optical density was measured at 540 nm using a microplate spectrophotometer (Epoch; Agilent Technologies, Inc. Santa Clara, CA, USA). […] The IC50 values of DK and its derivatives were determined for the different cell lines by nonlinear regression using GraphPad Prism v6.0 software (La Jolla, CA, USA).
# [3] = design: method as in PMID 35542614; details: estimated; cited from earlier work
# [4] = MTT cytotoxicity assay against normal cell line NIH/3T3; assay type: cell-based; details: mouse, NIH/3T3 normal cells, 24 h treatment, 0-500 μM, mean ± SD
# Experimental: as §1, §2, §3
# [5] = test system: NSCLC (A549) cells vs. normal (NIH/3T3) cells; test: Selectivity index, cytotoxicity A549 vs. NIH/3T3; assay type: cell-based; details: SI = IC50 (NIH/3T3 cells)/IC50 (A549 cells)
# Description: The ideal anticancer drug should have a relatively high toxic concentration on normal cells with a very low active concentration on cancer cells. In this study, the cancer-selective cytotoxicity of DK derivatives has been studied for the first time. To address this selectivity issue, the selectivity index (SI), which is defined as the ratio of the toxic concentration of a sample against its effective bioactive concentration according to Equation (1) (see Section 4.7), was used. […] An SI value ≥ 10 was assumed to belong to a selected potential sample that can be further investigated. Therefore, the acetyl and hydroxypropyl DKs would be highly considered for further investigations as potential anti-NSCLC chemotherapeutic agents.
# The selectivity index (SI) was determined to assess the selective cytotoxicity of the DK derivatives against NSCLC (A549) cells vs. normal (NIH/3T3) cells based on Equation (1):SI = IC50 (NIH/3T3 cells)/IC50 (A549 cells)(1)
# [6] = MTT, 24 h treatment, 0-500 μM, mean ± SD
Structure (SMILES),fold increase in IC50 compared with acetyl DK ([1]; A549 cells),"IC50 [1, 6]","Cytotoxicity (IC50) A549 ([1]; MTT, 24 h treatment, 0-500 μM, mean ± SD, listed as DK)",Cytotoxicity (IC50) NIH/3T3 [2],lowest pKa [3],IC50 at 24 h [4],SI Value (selectivity index) [5],times higher activity than 6-O-benzyl DK ([1]; A549 cells)
"O=C(Oc1cc(O)cc2c1Oc1c(Oc3cc(O)c(Oc4cc(O)c5c(c4)Oc4c(O)cc(O)c(Oc6cc(O)cc(O)c6)c4O5)c(O)c3)c(O)cc(O)c1O2)c1ccccc1 [compound 3, 6-O-benzoyl dieckol]",91 fold,641 ± 17.9 µM,–,–,–,–,–,–
"Oc1cc(O)cc(Oc2c(O)cc(O)c3c2Oc2c(O)cc(Oc4c(O)cc(Oc5c(O)cc(O)c6c5Oc5c(O)cc(O)cc5O6)cc4O)cc2O3)c1 [compound 1, Dieckol]",–,–,did not show detectable cytotoxicity,did not show detectable cytotoxicity,5.0,–,–,–
OCCCOc1cc(O)cc2c1Oc1c(Oc3cc(O)c(Oc4cc(O)c5c(c4)Oc4c(O)cc(O)c(Oc6cc(O)cc(O)c6)c4O5)c(O)c3)c(O)cc(O)c1O2 [compound 10],–,13.1 ± 5.06 µM,–,–,–,563 ± 51.8 µM,43.07,–
"CC(=O)Oc1cc(O)cc2c1Oc1c(Oc3cc(O)c(Oc4cc(O)c5c(c4)Oc4c(O)cc(O)c(Oc6cc(O)cc(O)c6)c4O5)c(O)c3)c(O)cc(O)c1O2 [compound 2, 6-O-acetyl dieckol]",–,7.02 ± 1.53 µM,–,–,–,481 µM,68.58,120 times
